Patent US11572362B2, “Pyrrolo[1,2-b]pyridazine derivatives” (Gilead Sciences, Inc., priority 2018, dated 2023)

What was measured:
TNFα = assay: IRAK4 Monocyte TNFα Cell Based Assay; settings: Monocyte; cryopreserved human monocytes, 50 pg/ml LPS, compound 1 hour pre-treatment, 4 hours stimulation, TNFα by TR-FRET
Experimental: IRAK4 Monocyte TNFα Cell Based Assay Procedure:
The cell suspension was then plated at a density of 5,000 cells/well onto black 384 well Greiner clear bottom plates. Plates were pre-spotted with test compounds and serially diluted in DMSO where 40 nL/well were delivered using the Echo 550 acoustic liquid dispenser (Labcyte®) for a final DMSO concentration of 0.1%. Plated cells were treated with compound for 1 hour at 37° C. Cells were then stimulated with 50 pg/ml of LPS (Sigma) excluding outside columns of plate used for unstimulated cell control wells. Cells were incubated for an additional 4 hours at 37° C. Cells were then spun out of the media and 5 μl of sample were taken and analyzed for total TNFα content using the TR-FRET Human TNFα detection system (CisBio). This system utilizes two labeled antibodies (cryptate and XL665) that bind to two different epitopes of the TNFα molecule and produce FRET signal proportional to the concentration of TNFα in the sample. Detection antibodies are mixed 50:50 and 5 μL were dispensed into each well. Plates were covered with clear seals and incubated at room temp overnight. The following morning plates were read using an Envision 2103 Multilabeled reader (PerkinElmer) with excitation/emission/FRET emission at 340 nm/615 nm/665 nm, respectively. Fluorescence intensities at 615 nm and 665 nm emission wavelengths were expressed as a ratio (665 nm/615 nm). Percent of control was calculated as follows: % Control=100×(RatioSample−Ratio0% Stimulation)/(Ratio100% Stimulation−Ratio0% Stimulation)
where unstimulated cells (0% stimulation) were the negative control and stimulated cells (100% stimulation) were used as the positive control.

IRAK4 = IRAK4 (Homo sapiens (Human), UniProt Q9NWZ3); assay: IRAK4 Biochemical Assay (TR-FRET/HTRF); settings: IRAK4 enzyme 0.75 nM, 500 μM ATP, 2 μM STK1 peptide, 120 min
Chain of IRAK4 (Q9NWZ3 whole entry): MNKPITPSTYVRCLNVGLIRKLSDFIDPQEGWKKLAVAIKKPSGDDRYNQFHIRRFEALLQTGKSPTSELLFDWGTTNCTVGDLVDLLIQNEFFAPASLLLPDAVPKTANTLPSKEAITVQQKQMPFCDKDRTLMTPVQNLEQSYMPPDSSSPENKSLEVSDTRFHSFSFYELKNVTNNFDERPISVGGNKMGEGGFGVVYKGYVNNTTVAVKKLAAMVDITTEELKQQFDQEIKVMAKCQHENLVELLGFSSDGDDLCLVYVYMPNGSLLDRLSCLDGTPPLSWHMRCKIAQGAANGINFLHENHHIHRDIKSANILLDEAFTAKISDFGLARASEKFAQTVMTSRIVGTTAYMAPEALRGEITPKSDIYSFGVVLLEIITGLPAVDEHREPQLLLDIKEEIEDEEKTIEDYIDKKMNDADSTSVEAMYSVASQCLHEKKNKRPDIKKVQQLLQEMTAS
Experimental: IRAK4 Biochemical Assay Procedure:
IRAK4 enzyme (Carna Biosciences, Chuo-ku, Kobe, Japan) activity was measured by detecting phosphorylated peptide substrate formation using an antibody against the phosphorylated peptide substrate. This is a time-resolved fluorescence resonance energy transfer (TR-FRET) immunoassay, based on the STK1 KinEASE Assay (Cisbio, Bedford, Mass.). The assay was designed as a simple two-step, endpoint assay (a 5 μl enzyme reaction followed by 5 μl stop and detect Solution) performed in ProxiPlate-384 Plus plates (Perkin Elmer, Waltham, Mass.). Staurosporine, a non-selective kinase inhibitor was used as a positive control. Compounds diluted in DMSO were spotted into 384 well plates using a Labcyte® Echo 550 Liquid Handling System prior to addition of IRAK4 enzyme and peptide substrate. Reaction solutions were delivered using a Multi-Flo (Bio-Tek Instruments). The enzyme and peptide solution was incubated with compound for 15 minutes at room temp before the reaction was initiated by the addition of ATP. The standard 5 μl reaction mixture contained 500 μM ATP, 2 μM peptide (STK1 Peptide), 0.75 nM of IRAK4 in reaction buffer (50 mM HEPES, pH 7.0, 0.02% NaN3, 0.01% BSA, 0.1 mM Orthovanadate, 5 mM MgCl2, 0.025% NP-40, 1 mM DTT). After 120 min of incubation at room temperature, 5 μl of Stop and Detect Solution (1:100 Cryptate labeled anti-phosphorylated peptide antibody solution and 125 nM Tracer in a 50 mM HEPES pH 7.0 detection buffer containing sufficient EDTA) was added. The plate was then further incubated for 60 minutes at room temperature and read on Envision 2103 Multilabeled reader (PerkinElmer) with excitation/emission/FRET emission at 340 nm/615 nm/665 nm, respectively. Fluorescence intensities at 615 nm and 665 nm emission wavelengths were expressed as a ratio (665 nm/615 nm). Percentage of inhibition was calculated as below: % Inhibition=100×(RatioSample−Ratio0% Inhibition)/(Ratio100% Inhibition−Ratio0% Inhibition)
The 0% inhibition value comes from control wells lacking inhibitor. The 100% inhibition value comes from control wells containing a saturating amount of known inhibitor staurosporine.

| EC50 (TNFα) [µM] | IC50 (IRAK4) [µM] | SMILES |
| --- | --- | --- |
| 0.038 | 0.001 | CC(C)(O)[C@H](F)CNC(=O)c1cnc(-c2ccc3cc(C#N)cnn23)cc1N[C@H]1CC[C@H](n2ccc(C(F)F)n2)CC1 [Compound 23, 6-(3-cyanopyrrolo[1,2-b]pyridazin-7-yl)-4-(((1r,4R)-4-(3-(difluoromethyl)-1H-pyrazol-1-yl)cyclohexyl)amino)-N-((R)-2-fluoro-3-hydroxy-3-methylbutyl)nicotinamide] |
| 0.029 | 0.002 | CC(C)(O)[C@H](F)CNC(=O)c1cnc(-c2ccc3cc(C#N)cnn23)cc1N[C@H]1CC[C@H](n2cc(F)cn2)CC1 [Compound 25, 6-(3-cyanopyrrolo[1,2-b]pyridazin-7-yl)-4-(((1r,4R)-4-(4-fluoro-1H-pyrazol-1-yl)cyclohexyl)amino)-N-((R)-2-fluoro-3-hydroxy-3-methylbutyl)nicotinamide] |
| 0.067 | 0.002 | CC(C)(O)[C@H](F)CNC(=O)c1cnc(-c2ccc3cc(C#N)cnn23)cc1N[C@H]1CC[C@H](c2ncn(C(F)F)n2)CC1 [Compound 22, 6-(3-cyanopyrrolo[1,2-b]pyridazin-7-yl)-4-(((1r,4R)-4-(1-(difluoromethyl)-1H-1,2,4-triazol-3-yl)cyclohexyl)amino)-N-((R)-2-fluoro-3-hydroxy-3-methylbutyl)nicotinamide] |
| 0.091 | < 0.001 | Cc1cnn([C@H]2CC[C@H](Nc3cc(-c4ccc5cc(C#N)cnn45)ncc3C(=O)NC[C@@H](F)C(C)(C)O)CC2)c1 [Compound 26, 6-(3-cyanopyrrolo[1,2-b]pyridazin-7-yl)-N-((R)-2-fluoro-3-hydroxy-3-methylbutyl)-4-(((1r,4R)-4-(4-methyl-1H-pyrazol-1-yl)cyclohexyl)amino)nicotinamide] |

The remaining lines, values behind:

| SMILES | EC50 (TNFα) [µM] | IC50 (IRAK4) [µM] |
| --- | --- | --- |
| CC(C)(O)[C@H](F)CNC(=O)c1cnc(-c2ccc3cc(C#N)cnn23)cc1N[C@H]1CC[C@H](n2nc(C(F)F)cc2C(F)F)CC1 [Compound 29, 4-(((1r,4R)-4-(3,5-bis(difluoromethyl)-1H-pyrazol-1-yl)cyclohexyl)amino)-6-(3-cyanopyrrolo[1,2-b]pyridazin-7-yl)-N-((R)-2-fluoro-3-hydroxy-3-methylbutyl)nicotinamide] | 0.381 | 0.007 |
| Cc1noc([C@H]2CC[C@H](Nc3cc(-c4ccc5cc(C#N)cnn45)ncc3C(=O)NC[C@@H](F)C(C)(C)O)CC2)n1 [Compound 45, 6-(3-cyanopyrrolo[1,2-b]pyridazin-7-yl)-N-((R)-2-fluoro-3-hydroxy-3-methylbutyl)-4-(((1r,4R)-4-(3-methyl-1,2,4-oxadiazol-5-yl)cyclohexyl)amino)nicotinamide] | 0.085 | 0.002 |
| CC(C)(O)[C@H](F)CNC(=O)c1cnc(-c2ccc3cc(C#N)cnn23)cc1N[C@H]1CC[C@H](n2cc(C(F)(F)F)cn2)CC1 [Compound 30, 6-(3-cyanopyrrolo[1,2-b]pyridazin-7-yl)-N-((R)-2-fluoro-3-hydroxy-3-methylbutyl)-4-(((1r,4R)-4-(4-(trifluoromethyl)-1H-pyrazol-1-yl)cyclohexyl)amino)nicotinamide] | 0.136 | 0.004 |
| CC(C)(O)[C@H](F)CNC(=O)c1cnc(-c2ccc3cc(C#N)cnn23)cc1N[C@H]1CC[C@H](c2cccnc2)CC1 [Compound 55, 6-(3-cyanopyrrolo[1,2-b]pyridazin-7-yl)-N-((R)-2-fluoro-3-hydroxy-3-methylbutyl)-4-(((1r,4R)-4-(pyridin-3-yl)cyclohexyl)amino)nicotinamide] | 0.025 | < 0.001 |
| Cn1cc([C@H]2CC[C@H](Nc3cc(-c4ccc5cc(C#N)cnn45)ncc3C(=O)NC[C@@H](F)C(C)(C)O)CC2)cn1 [Compound 7, 6-(3-cyanopyrrolo[1,2-b]pyridazin-7-yl)-N-((R)-2-fluoro-3-hydroxy-3-methylbutyl)-4-(((1r,4R)-4-(1-methyl-1H-pyrazol-4-yl)cyclohexyl)amino)nicotinamide] | 0.018 | 0.001 |
